{"source": "patent EP0241232A1", "about": "“Isoxazolylethanol derivatives” (SHIONOGI SEIYAKU KABUSHIKI KAISHA, priority 1986, dated 1987)"}
{"tested_on": "Rhizoctonia solani", "assay": "Control by seed-soaking: Rhizoctonia damping-off in cucumber", "type": "in vivo", "conditions": "360 h, seed-soaking, 125 ppm, observed 15 days after sowing, control effect by equation, read-out: Control Index Rhizoctonia Damping-Off in Cucumber", "experimental": "(§1) The test compound was dissolved in 0.2 ml of acetone and suspended in demineralized distilled water containing a small amount of spreader, to a concentration of 500 ppm. The suspension was further diluted to one quarter dilution with demineralized distilled water (containing a small amount of spreader) to give a suspension in 125 ppm. All seeds of oats, wheat and cucumber were soaked in these suspensions at room temperature for an hour and then the seeds were air-dried.\n(§2) The seeds as described above were sown in plastic pots (diameter : 9 cm). For rust and powdery mildews, the pots were kept in a glasshouse for 1 - 3 weeks until the seeds grew to young plants. The young oats (10 - 20 plants per pot) were inoculated by dusting with spores of Puccinia coronata, and the wheat (10 - 20 plants per pot) was also inoculated by spraying with spores of Erysiphe graminis f. sp. tritici, and the cucumber (1 plant per pot) was also inoculated by spraying with spore suspension of Sphaerotheca fuliginea. These inoculated plants were further kept in a glasshouse for 10 - 14 days until assessment. For damping-off, the treated seeds were sown in paper pots (diameter : 7.5 cm; depth : 6 cm) which contained soil infested with Rhizoctonia solani by mixing sterilized soil and pre-cultured fungus. Then the pots were kept in a humid glasshouse at 25 - 32 ^*C.\n(§3) Damping-off was observed 15 days after sowing, and disease degree and control effect were obtained from the following equations. [formula] [formula] where diseased seedlings included damping-off and unemerged'seeds due to infection. For the foliar diseases, disease development was observed 10 - 14 days after inoculation of spores, and control effect was obtained by the following index.", "units": {"pest or weed control at 125 ppm": "%"}}
{"molecule": "Cc1onc(C(O)(Cn2cncn2)c2ccc(F)cc2)c1Cl", "note": "(centres unmarked) [Ib - 2]", "pest or weed control at 125 ppm": 60}
{"tested_on": "Rhizoctonia solani", "assay": "Control by seed-soaking: Rhizoctonia damping-off in cucumber", "type": "in vivo", "conditions": "360 h, seed-soaking, 500 ppm, observed 15 days after sowing, control effect by equation, read-out: Control Index Rhizoctonia Damping-Off in Cucumber", "experimental": "as §1, §2, §3", "units": {"pest or weed control at 500 ppm": "%"}}
{"molecule": "Cc1onc(C(O)(Cn2cncn2)c2ccc(F)cc2)c1Cl", "note": "(centres unmarked) [Ib - 2]", "pest or weed control at 500 ppm": 85}
{"tested_on": "Candida albicans KE-2", "assay": "Inhibition test against pseudomycelium formation of Candida albicans", "type": "cell-based", "conditions": "KE2, minimum effective concentration preventing typical pseudomycelium formation, Eagle-MEM + 20 % calf serum, 18 hours at 37 °C, read-out: Inhibitory Concentration of Pseudo-myselium Formation", "experimental": "Candida albicans KE-2 was inoculated to Eagle-MEM medium (Nissan 2 made by Nissui Seiyaku, Ltd.) supplemented with 20 % calf serum so that its final inoculum of yeast cell might be 1 x 10^6 yeast cells per milliliter. The test compounds were added thereon in two fold dilution series. After incubation for 18 hours at 37 °C, the fungal growth in each drug concentration was smeared and fixed on a slide glass, and the presence or absence of the pseudomycelium formation was examined by a microscope following Giemsa staining. Minimum effective concentration was defined as the lowest concentration of the compound which prevented typical pseudomycelium formation.", "units": {"minimal effective concentration": "µg/mL"}}
{"molecule": "Cc1cc(C(O)(Cn2cncn2)c2ccccc2)no1", "note": "(centres unmarked) [Ia - 9]", "minimal effective concentration": 0.31}
{"molecule": "CCc1cc(C(O)(Cn2cncn2)c2ccc(F)cc2F)no1", "note": "(centres unmarked) [Ia - 10]", "minimal effective concentration": 0.08}
{"molecule": "CCCCc1cc(C(O)(Cn2cncn2)c2ccc(F)cc2F)no1", "note": "(centres unmarked) [Ia - 11]", "minimal effective concentration": 0.04}
{"molecule": "CC(C)(C)c1cc(C(O)(Cn2cncn2)c2ccc(F)cc2F)no1", "note": "(centres unmarked) [Ia - 12]", "minimal effective concentration": 0.31}
{"molecule": "Cc1cc(C(O)(Cn2ccnc2)c2ccc(F)cc2)no1", "note": "(centres unmarked) [Ia - 13, 1-(4-Fluorophenyl)-1-(5-methylisoxazol-3-yl)-2-(1H-imidazol-1-yl)ethanol]", "minimal effective concentration": 0.63}
{"molecule": "Cc1onc(C(O)(Cn2cncn2)c2ccc(F)cc2)c1Cl", "note": "(centres unmarked) [Ib - 2]", "minimal effective concentration": 1.25}
{"molecule": "Cc1onc(C(O)(Cn2cncn2)c2ccccc2)c1Cl", "note": "(centres unmarked) [Ib - 3]", "minimal effective concentration": 1.25}
{"tested_on": "Candida albicans KE-2", "assay": "Therapeutic effect against experimental candidiasis in mice", "type": "in vivo", "conditions": "KE2, po, 120 h, mouse survival ratio on the 5th day after infection, Jcl-ICR female mouse, 50 mg/kg orally three times (0, 4, 24 hours)", "experimental": "After Candida albicans KE-2 was incubated on Sabouraud's glucose agar at 28 °C for 48 hr., it was suspended in Sabouraud's glucose broth and the cells ([…]) were injected to a tail vein of Jcl-ICR female mouse (4 weeks age; weight : 18 - 20 g). A suspension of the test compound in 2 % gum arabic was orally administered three times, immediately after infection of the yeast ( 0 hour), after 4 hours and after 24 hours, as a dosage of 50 mg/kg. Non-treated group was used as control. Each eight mice per group was used in control group and treated group. All the mice in control group died within 48 hr. after infection. Therapeutic effect of the test compound was judged by mouse survival ratio on the 5th day after infection.", "units": {"responders at 50 mg/kg": "%"}}
{"molecule": "CCc1cc(C(O)(Cn2cncn2)c2ccc(F)cc2F)no1", "note": "(centres unmarked) [Ia - 10]", "responders at 50 mg/kg": 50}
{"molecule": "CCCCc1cc(C(O)(Cn2cncn2)c2ccc(F)cc2F)no1", "note": "(centres unmarked) [Ia - 11]", "responders at 50 mg/kg": 50}
